According to BindingDB's records for patent US20240115574 (The Johns Hopkins University, 2024):

Molecular target: T1, Sphingomyelin phosphodiesterase 3 (Homo sapiens, UniProt Q9NY59)
T1 sequence (Q9NY59 whole entry): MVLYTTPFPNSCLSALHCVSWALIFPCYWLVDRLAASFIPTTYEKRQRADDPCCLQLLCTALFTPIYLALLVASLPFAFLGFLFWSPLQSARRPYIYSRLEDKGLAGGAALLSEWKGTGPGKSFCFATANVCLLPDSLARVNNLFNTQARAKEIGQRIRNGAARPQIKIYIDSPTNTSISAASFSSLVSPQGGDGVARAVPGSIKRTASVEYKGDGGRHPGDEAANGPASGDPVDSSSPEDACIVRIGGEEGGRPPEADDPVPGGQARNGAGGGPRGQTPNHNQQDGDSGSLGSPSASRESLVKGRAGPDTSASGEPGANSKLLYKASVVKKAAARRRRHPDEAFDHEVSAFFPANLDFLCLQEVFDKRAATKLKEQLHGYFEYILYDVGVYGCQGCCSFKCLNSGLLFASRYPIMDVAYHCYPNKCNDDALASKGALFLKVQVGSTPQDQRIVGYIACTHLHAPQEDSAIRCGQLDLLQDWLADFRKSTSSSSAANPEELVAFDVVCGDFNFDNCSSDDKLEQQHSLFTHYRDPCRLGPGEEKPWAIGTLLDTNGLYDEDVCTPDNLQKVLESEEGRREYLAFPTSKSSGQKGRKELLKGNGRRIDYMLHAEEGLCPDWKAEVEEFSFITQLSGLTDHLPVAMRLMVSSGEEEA
Test: Not found
Description: Not found

IC50 | Compound
> 100 µM | COc1ccc(-n2c(C)nc3c(N4CC[C@@H](NC(C)=O)C4)ncnc32)cc1OC [US20240115574, Entry 5-PROV]
> 100 µM | COc1ccc(-c2c3nc(C)nc(N4CC[C@@H](NC(C)=O)C4)c3nn2C)cc1OC [US20240115574, Entry 12-PROV]
> 100 µM | COc1ccc(-n2cnc3c(N4CC[C@@H](NC(C)=O)C4)nc(C)nc32)cc1OC [US20240115574, Entry 2-PROV]
> 100 µM | COc1ccc(-n2cnc3c(N4CC[C@@H](NC(C)=O)C4)ncnc32)cc1OC [US20240115574, Entry 6-PROV]
> 100 µM | COc1ccc(-n2ncc3c(N4CC[C@@H](NC(C)=O)C4)nc(C)nc32)cc1OC [US20240115574, Entry 10-PROV]
> 100 µM | COc1ccc(-c2c(C)nn3c(N4CC[C@@H](NC(C)=O)C4)cc(C)nc23)cc1OC [US20240115574, Entry 7-PROV]
> 100 µM | COc1ccc(-c2c(C)nn3c(N4CC[C@@H](NC(C)=O)C4)nc(C)nc23)cc1OC [US20240115574, Entry 36-PROV]
> 100 µM | COc1ccc(-c2nn(C)c3c(N4CC[C@@H](NC(C)=O)C4)nc(C)nc23)cc1OC [US20240115574, Entry 13-PROV]
